The record followed here is ChEMBL document CHEMBL3217734, “Sulfonyl-hydrazones of cyclic imides derivatives as potent inhibitors of the Mycobacterium tuberculosis protein tyrosine phosphatase B (PtpB)” (Medchemcomm, 2011).

The nature of assay [1]: Competitive inhibition of N-terminal hexahistidine-tagged recombinant Mycobacterium tuberculosis PtpB expressed in Escherichia coli BL21(DE3) using p-nitrophenylphosphate as substrate measured for 10 mins by Lineweaver-Burk plot analysis.
The test system of assay [2] is Mycobacterium tuberculosis. As to the kind of experiment: Inhibition of N-terminal hexahistidine-tagged recombinant Mycobacterium tuberculosis PtpB expressed in Escherichia coli BL21(DE3) using p-nitrophenylphosphate as substrate at 25 uM measured for 10 mins by ELISA plate spectrophotometric analysis relative to control.
A short description of assay [3]: Inhibition of N-terminal hexahistidine-tagged recombinant Mycobacterium tuberculosis PtpB expressed in Escherichia coli BL21(DE3) using p-nitrophenylphosphate as substrate measured for 10 mins by ELISA plate spectrophotometric analysis.
The target in assay [4] is T1, Tyrosine-protein phosphatase non-receptor type 1 (Homo sapiens, UniProt P18031).
T1 sequence (P18031 whole entry): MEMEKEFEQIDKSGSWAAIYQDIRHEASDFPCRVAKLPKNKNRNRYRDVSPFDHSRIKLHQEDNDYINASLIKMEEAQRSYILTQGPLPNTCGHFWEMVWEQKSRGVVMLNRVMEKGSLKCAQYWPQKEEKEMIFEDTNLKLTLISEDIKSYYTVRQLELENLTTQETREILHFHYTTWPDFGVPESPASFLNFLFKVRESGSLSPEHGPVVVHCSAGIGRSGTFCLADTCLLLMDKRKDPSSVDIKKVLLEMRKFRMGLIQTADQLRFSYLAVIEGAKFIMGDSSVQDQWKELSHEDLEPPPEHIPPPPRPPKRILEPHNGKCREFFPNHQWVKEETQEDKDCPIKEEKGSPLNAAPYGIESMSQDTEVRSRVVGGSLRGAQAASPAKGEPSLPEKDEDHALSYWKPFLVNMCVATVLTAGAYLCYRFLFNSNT
Kind of assay: Inhibition of PTP1B (unknown origin) using p-nitrophenylphosphate as substrate measured for 10 mins by ELISA plate spectrophotometric analysis.

Activity calls are given as the source filed them. The rule behind the calls is not given here.

As to `O=C1C2C3C=CC(O3)C2C(=O)N1c1ccc(S(=O)(=O)N/N=C/c2ccc([N+](=O)[O-])cc2)cc1` (stereo not drawn), the Ki – broadly, the equilibrium dissociation constant of an inhibitor or competing ligand from its target – in assay [1] came to 15 µM. For the same compound, the inhibition (as a rule, how much of the control response was suppressed) in assay [2] was determined as 57%. Besides, the IC50 – broadly, the point on the concentration scale where inhibition reaches its midpoint – worked out at 41 µM in assay [3] and 245 µM in assay [4].

For the compound `O=C1C=CC(=O)N1c1ccc(S(=O)(=O)Cl)cc1`, in assay [2], the inhibition is 14%.

Consider `O=C1C=CC(=O)N1c1ccccc1`, for which, in assay [2], the inhibition worked out at 27%.

On to `COc1ccc(/C=N/NS(=O)(=O)c2ccc(N3C(=O)C4C5C=CC(C)(O5)C4C3=O)cc2)cc1` (stereo not drawn), for which, in assay [2], the inhibition result was “inactive”.

For the compound `CC12C=CC(O1)C1C(=O)N(c3ccc(S(=O)(=O)N/N=C/c4ccc([N+](=O)[O-])cc4)cc3)C(=O)C12` (stereo not drawn), the inhibition in assay [2] was 32%.

As for `CC12C=CC(O1)C1C(=O)N(c3ccc(S(=O)(=O)N/N=C/c4ccc(Cl)c(Cl)c4)cc3)C(=O)C12` (stereo not drawn), the inhibition in assay [2] was determined as 34%.

`O=C1c2cccc3c(Cl)ccc(c23)C(=O)N1Cc1ccc(S(=O)(=O)N2CCOCC2)cc1`: the inhibition result in assay [2] is “inactive”.

For `CC12C=CC(O1)[C@@H]1C(=O)N(c3ccc(S(=O)(=O)N/N=C/c4ccc(Br)cc4)cc3)C(=O)[C@@H]12` (stereo partly drawn), the Ki in assay [1] came out at 9 µM. Moreover, the inhibition in assay [2] turned out to be 59%. Also, the IC50 in assay [3] amounted to 39 µM; in assay [4] it was 88 µM.

On to `Cc1ccc(/C=N/NS(=O)(=O)c2ccc(N3C(=O)C4C5C=CC(C)(O5)C4C3=O)cc2)cc1` (stereo not drawn), for which, in assay [2], the inhibition worked out at 26%.

On to `O=C1c2cccc3cccc(c23)C(=O)N1Cc1ccc(S(=O)(=O)N2CCCC2)cc1`, for which the inhibition result in assay [2] is “inactive”.

Turning to `O=C1C2C3C=CC(O3)C2C(=O)N1c1ccc(S(=O)(=O)N2CCCC2)cc1` (stereo not drawn), the inhibition result in assay [2] is “inactive”.

Turning to `O=C1c2cccc3cccc(c23)C(=O)N1Cc1ccc(S(=O)(=O)N2CCOCC2)cc1`, the inhibition result in assay [2] was “inactive”.

Regarding `CC12C=CC(O1)C1C(=O)N(c3ccc(S(=O)(=O)N4CCOCC4)cc3)C(=O)C12` (stereo not drawn), in assay [2], the inhibition result was “inactive”.

`CC12C=CC(O1)C1C(=O)N(c3ccc(S(=O)(=O)N/N=C/c4ccc(Cl)cc4)cc3)C(=O)C12` (stereo not drawn): in assay [1], the Ki came to 2.5 µM. The inhibition in assay [2] amounted to 59%. Besides, the IC50 was 21 µM in assay [3] and 41 µM in assay [4].

Take `CC12C=CC(O1)C1C(=O)N(c3ccc(S(=O)(=O)N4CCCC4)cc3)C(=O)C12` (stereo not drawn): the inhibition result in assay [2] is “inactive”.

`CC12C=CC(O1)C1C(=O)N(c3ccc(S(=O)(=O)N/N=C/c4ccccc4)cc3)C(=O)C12` (stereo not drawn): the Ki in assay [1] was determined as 7 µM. In addition, the inhibition in assay [2] turned out to be 59%. In addition, the IC50 in assay [3] is 18 µM; in assay [4], 7 µM.
